# In patent publication US12459951B2, “Compounds that interact with RAS superfamily proteins for treatment of cancers, inflammatory diseases, rasopathies, and fibrotic disease” (SHY Therapeutics, LLC, priority 2022, dated 2025):
# pIC50: −log10 of the molar value. Where a name gives a salt, the structure may show the parent alone. Read-outs that look alike come from different tables or passages of the source.
# Key:
# Erk1/2 phosphorylation = assay: Erk1/2 Phosphorylation Assay (western blot), Panc-1; format: cell-based, human; settings: at 10 μM, * = activation
# Protocol: Protocol for Western Erk1/2 Cell-Based Phosphorylation Assay
# This assay is referred to as the “Erk1/2 Phosphorylation Assay” throughout this application.
# Cell lines: Human tumor-derived pancreatic cancer cell line Panc-1 (expressing KRas G12D mutant) was purchased from American Type Culture Collection and grown in complete DMEM-High Glucose medium, supplemented with penicillin (100 U/mL), streptomycin (100 μg/mL), and 10% heat-inactivated FBS at 37° C. in a humidified incubator with 5% CO2.
# Method 1: Cells were plated at 350000 cells/well density in a 12-well plate, allowed 3 hours to adhere to the plate, then starved in the appropriate medium in the presence of 0.5% FBS overnight. The small molecules to be tested were added to the cells in the final concentration of 10 μM in the presence of 0.3% DMSO for 6 hours incubation at 37° C. For IC50 value determination, serial dilutions of compounds were added to cells under the same conditions. Next, cells were stimulated with 1.5 ng/ml EGF for 15 minutes then cells were lysed with lysis buffer containing 1% Triton X-100, EDTA, and Halt™ Protease & Phosphatase Inhibitor Cocktail (Thermo Scientific). Protein concentration was assessed by BCA protein assay (Thermo Scientific). Phosphorylation level of Erk1/2 was determined by western blot.
# Method 2: Cells were plated at 350000 cells/well density in a 12-well plate in 10% FBS. The next day small molecules to be tested were added to the cells in the final concentration of 10 μM in the presence of 0.3% DMSO for 6 hours incubation at 37° C. For IC50 value determination, serial dilutions of compounds were added to cells under the same conditions. Next, cells were lysed with lysis buffer containing 1% Triton X-100, EDTA, and Halt™ Protease & Phosphatase Inhibitor Cocktail (Thermo Scientific). Protein concentration was assessed by BCA protein assay (Thermo Scientific). Phosphorylation level of Erk1/2 was determined by western blot.
# Western blot protocol: Equal amounts of protein (15-50 μg) were separated by SDS-PAGE and transferred to nitrocellulose membranes (Invitrogen by Thermo Fisher Scientific). The membrane was stained with Ponceau S Stain (Boston BioProducts) to verify uniform protein loading. Membranes were blocked with 10% milk and phosphorylation levels of Erk1/2 were assessed by incubating overnight at 4° C. with anti-phospho-p44/42 (Thr202/Tyr204) antibody (Cell Signaling) followed by HRP-conjugated secondary antibody (Jackson Immunoresearch, West Grove, PA). Bands were incubated in Amersham ECL Prime Western Blotting Detection Reagent (GE Healthcare) and visualized using the ChemiDoc MP imaging system (Bio-Rad).
# IL6 = assay: IL-6 Quantification Assay (ELISA), LPS-stimulated RAW 264.7; format: cell-based; set-up: inhibition: dose or concentration left out as unconfirmed; settings: Mus musculus, RAW264.7; read-out: IL-6: % inh.
# TNF-alpha = TNF-alpha Quantification Assay (ELISA), LPS-stimulated RAW 264.7; format: cell-based; settings: Mus musculus, RAW264.7; at 10 μM; read-out: TNFα: % inh.
# [1] = tested on: MiaPaca-2 (expressing KRAS G12C mutant); assay: Proliferation Assay (Cell Viability Assay); format: cell-based; settings: Homo sapiens, MIA PaCa-2; for pIC50: read-out: Proliferation in MiaPaca-2: IC50; for IC50: Proliferation assay, MiaPaca-2, read-out: MiaPaca-2 IC50 (nM) Pancreatic
# Protocol: Protocol for Proliferation Assay
# This assay is referred to as the “Proliferation Assay” or “Cell Viability Assay” throughout this application.
# Cell lines: Human tumor-derived cell lines were purchased from American Type Culture Collection. Human tumor-derived pancreatic cancer cell line MiaPaca-2 (expressing KRAS G12C mutant) and Panc-1 (expressing KRas G12D mutant), and Human non-small cell lung cancer (NSCLC) cell line A549 (expressing KRas G12S mutant) were grown in complete DMEM-High Glucose medium. Human colon cancer cell line SW-620 (expressing KRas G12V mutant) was grown in RPMI 1640 medium. All cell lines were supplemented with penicillin (100 U/mL), streptomycin (100 μg/mL), and 10% heat-inactivated FBS at 37° C. in a humidified incubator with 5% CO2.
# (§1) Method: Cells were plated at 2000 to 5000 cells/well density in 96-wells plate and cultured overnight. Small molecules to be tested were added to the cells in the final concentration of 10 μM in the presence of 0.3% DMSO and 10% FBS and incubated for 2-4 days at 37° C. in a humidified incubator with 5% CO2. For IC50 value determination, serial dilutions of compounds were added to cells under the same conditions.
# Assay: At the end of the incubation period, cell viability was determined using the CellTiter 96® Aqueous One Solution Cell Proliferation Assay according to manufacturer specifications (Promega, Madison, WI). The percentage of small molecules inhibition of cellular proliferation was calculated from raw data.
# Cell lines: these Human tumor-derived cell lines were purchased from American Type Culture Collection. Human tumor-derived pancreatic cancer cell line MiaPaca-2 (expressing KRAS G12C mutant) and Panc-1 (expressing KRas G12D mutant), and Human non-small cell lung cancer (NSCLC) cell line A549 (expressing KRas G12S mutant), and Human melanoma cell line A375 (wild type Kras) were grown in complete DMEM-High Glucose medium. Human tumor-derived pancreatic cancer cell lines SU86.86 (expressing KRas G12D mutant), BxPC3 (expressing wild type K-Ras), and Human non-small cell lung cancer (NSCLC) cell lines NCI-H441 (expressing KRas G12S mutant), NCI-H1975 (expressing wild type KRas), NCI-H358 (expressing KRas G12C mutant), NCI-H1299 (expressing NRas Q61H mutant), and Human colon cancer cell line SW-620 (expressing KRas G12V mutant), Human triple negative breast cancer cell line HCC-1806 (expressing wild type KRas), and Human tumor-derived multiple myeloma cell line MM.1R (expressing wild type KRAS), were grown in RPMI 1640 medium. Human tumor-derived breast cancer cell line BT-549 (expressing wild type KRAS) was grown in RPMI 1640 medium in the presence of 11.8U insulin. Human tumor-derived pancreatic cancer cell line HPAF-II (expressing KRas G12D mutant), Human triple negative breast cancer cell line BT-20 (expressing wild type KRas), and Human colon cancer cell line LS123 (expressing KRas G12S mutant), were grown in EMEM medium. Human tumor-derived pancreatic cancer cell line CF-PAC1 (expressing KRas G12V mutant) was frown in IMDM medium, and Human colon cancer cell line HT29 (expressing wild type KRas) was grown in McCoy's 5A medium. The colon cancer cell line GP2d (expressing KRas G12D mutant) was purchased from MilliporeSigma and grown in DMEM-High Glucose medium. All cell lines were supplemented with penicillin (100 U/mL), streptomycin (100 μg/mL), and 10% heat-inactivated FBS at 37° C. in a humidified incubator with 5% CO2.
# as §1, with “that were” for “to be”, “FBS,” for “FBS”
SMILES,pIC50 [1],IC50 [1],% inh of Erk1/2 phosphorylation in Panc-1 (Erk1/2 phosphorylation),inhibition (IL6),inhibition at 10 µM (TNF-alpha)
"COc1ccnc(Nc2nc(-c3nccn3C)nn3cc(-c4ccn(C(F)F)n4)c(C)c23)n1 [Compound 95, 6-(1-(Difluoromethyl)-1H-pyrazol-3-yl)-N-(4-methoxypyrimidin-2-yl)-5-methyl-2-(1-methyl-1H-imidazol-2-yl)pyrrolo[2,1-f][1,2,4]triazin-4-amine]",> 6.82,–,D* (85-100% activation),1 to 24%,1 to 24%
"Cc1c(-c2ccn(C(C)C)n2)cn2nc(-c3nccn3C)nc(Nc3nccc(OCCN(C)C)n3)c12 [Compound 96, N-(4-(2-(Dimethylamino)ethoxy)pyrimidin-2-yl)-6-(1-isopropyl-1H-pyrazol-3-yl)-5-methyl-2-(1-methyl-1H-imidazol-2-yl)pyrrolo[2,1-f][1,2,4]triazin-4-amine]",6.30 to 6.82,–,0 (0% inhibition),50 to 74%,0%
"Cc1c(-c2ccn(C(C)C)n2)cn2nc(-c3nccn3C)nc(Nc3cc(OCCO)ncn3)c12 [Compound 97, 2-((6-((6-(1-Isopropyl-1H-pyrazol-3-yl)-5-methyl-2-(1-methyl-1H-imidazol-2-yl)pyrrolo[2,1-f][1,2,4]triazin-4-yl)amino)pyrimidin-4-yl)oxy) ethan-1-ol]",> 6.82,–,D* (85-100% activation),1 to 24%,0%
"COc1cc(Nc2nc(-c3nccn3C)nn3cc(-c4ccn(C(F)F)n4)c(C)c23)ncn1 [Compound 98, 6-(1-(Difluoromethyl)-1H-pyrazol-3-yl)-N-(6-methoxypyrimidin-4-yl)-5-methyl-2-(1-methyl-1H-imidazol-2-yl)pyrrolo[2,1-f][1,2,4]triazin-4-amine]",> 6.82,–,D* (85-100% activation),1 to 24%,0%
"Cc1c(-c2ccn(C)n2)cn2nc(-c3nccn3C)nc(Cl)c12 [Compound 99, 4-Chloro-5-methyl-2-(1-methyl-1H-imidazol-2-yl)-6-(1-methyl-1H-pyrazol-3-yl)pyrrolo[2,1-f][1,2,4]triazine]",< 6.00,–,D* (85-100% activation),75 to 100%,75 to 100%

# Now from value to compound, other results behind:
pIC50 [1],IC50 [1],SMILES,% inh of Erk1/2 phosphorylation in Panc-1 (Erk1/2 phosphorylation),inhibition (IL6),inhibition at 10 µM (TNF-alpha)
> 6.82,1 to 10 nM,"Cc1c(-c2ccn(C)n2)cn2nc(-c3nccn3C)nc(Nc3cc4n(n3)CCC4)c12 [Compound 100, N-(5,6-Dihydro-4H-pyrrolo[1,2-b]pyrazol-2-yl)-5-methyl-2-(1-methyl-1H-imidazol-2-yl)-6-(1-methyl-1H-pyrazol-3-yl)pyrrolo[2,1-f][1,2,4]triazin-4-amine]",C* (46-84% activation),50 to 74%,0%
6.30 to 6.82,–,"Cc1c(-c2ccn(C)n2)cn2nc(-c3nccn3C)nc(Nc3cc(OCCO)ncn3)c12 [Compound 101, 2-((6-((5-Methyl-2-(1-methyl-1H-imidazol-2-yl)-6-(1-methyl-1H-pyrazol-3-yl)pyrrolo[2,1-f][1,2,4]triazin-4-yl)amino)pyrimidin-4-yl)oxy) ethan-1-ol]",A* (1-25% activation),50 to 74%,0%
> 6.82,1 to 10 nM,"COc1ccnc(Nc2nc(-c3nccn3C)nn3cc(-c4ccn(C)n4)c(C)c23)c1 [Compound 102, N-(4-Methoxypyridin-2-yl)-5-methyl-2-(1-methyl-1H-imidazol-2-yl)-6-(1-methyl-1H-pyrazol-3-yl)pyrrolo[2,1-f][1,2,4]triazin-4-amine]",A* (1-25% activation),75 to 100%,25 to 49%
< 6.00,–,"CO[C@H]1C[C@H](Nc2nc(-c3nccn3C)nn3cc(-c4ccn(C)n4)c(C)c23)C1 [Compound 103, N-((1r,3r)-3-Methoxycyclobutyl)-5-methyl-2-(1-methyl-1H-imidazol-2-yl)-6-(1-methyl-1H-pyrazol-3-yl)pyrrolo[2,1-f][1,2,4]triazin-4-amine hydrochloride salt]",A* (1-25% activation),0%,0%
> 6.82,1 to 10 nM,"Cc1c(-c2ccn(C)n2)cn2nc(-c3nccn3C)nc(Nc3cc(C4CC4)[nH]n3)c12 [Compound 104, N-(5-Cyclopropyl-1H-pyrazol-3-yl)-5-methyl-2-(1-methyl-1H-imidazol-2-yl)-6-(1-methyl-1H-pyrazol-3-yl)pyrrolo[2,1-f][1,2,4]triazin-4-amine]",D* (85-100% activation),75 to 100%,0%
6.00 to 6.29,–,"Cc1c(-c2ccn(C)n2)cn2nc(-c3nccn3C)nc(Nc3nccc(OCCN(C)C)n3)c12 [Compound 105, N-(4-(2-(Dimethylamino)ethoxy)pyrimidin-2-yl)-5-methyl-2-(1-methyl-1H-imidazol-2-yl)-6-(1-methyl-1H-pyrazol-3-yl)pyrrolo[2,1-f][1,2,4]triazin-4-amine]",A (1-25% inhibition),75 to 100%,0%
